Columns and labels:
[1] = target: PI3K (Homo sapiens, UniProt P42336); experiment: Fluorescence polarization assay for PI3K; type: biochemical; conditions: PI3Kα; read-out: PI3Kα IC50;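 further: PI3K kinase reaction on PIP2 with ATP, 30-60 min, product sensed by GST-GRP with red probe in fluorescence polarization (mP), controls without enzyme and at zero time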
[2] = system: prostate line LNCap; experiment: In vitro cell culture growth assay (MTS), LNCap; type: cell-based, human; conditions: Homo sapiens, LNCaP, 72 h, LNCap cells, three days after drug treatment;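 further: viable cell density read by absorbance at 490 nm, growth expressed as percent of vehicle-treated cells on the same plate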
[3] = system: breast line MDA468; experiment: In vitro cell culture growth assay (MTS), MDA468; type: cell-based, human; conditions: Homo sapiens, 72 h, MDA468 cells, three days after drug treatment
Outline: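 Three-day drug treatment starting 1 day post-plating; viable cells quantified via MTS metabolism (A490); effect normalised to in-plate vehicle controls as % growth.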

Chain of PI3K (P42336 whole entry): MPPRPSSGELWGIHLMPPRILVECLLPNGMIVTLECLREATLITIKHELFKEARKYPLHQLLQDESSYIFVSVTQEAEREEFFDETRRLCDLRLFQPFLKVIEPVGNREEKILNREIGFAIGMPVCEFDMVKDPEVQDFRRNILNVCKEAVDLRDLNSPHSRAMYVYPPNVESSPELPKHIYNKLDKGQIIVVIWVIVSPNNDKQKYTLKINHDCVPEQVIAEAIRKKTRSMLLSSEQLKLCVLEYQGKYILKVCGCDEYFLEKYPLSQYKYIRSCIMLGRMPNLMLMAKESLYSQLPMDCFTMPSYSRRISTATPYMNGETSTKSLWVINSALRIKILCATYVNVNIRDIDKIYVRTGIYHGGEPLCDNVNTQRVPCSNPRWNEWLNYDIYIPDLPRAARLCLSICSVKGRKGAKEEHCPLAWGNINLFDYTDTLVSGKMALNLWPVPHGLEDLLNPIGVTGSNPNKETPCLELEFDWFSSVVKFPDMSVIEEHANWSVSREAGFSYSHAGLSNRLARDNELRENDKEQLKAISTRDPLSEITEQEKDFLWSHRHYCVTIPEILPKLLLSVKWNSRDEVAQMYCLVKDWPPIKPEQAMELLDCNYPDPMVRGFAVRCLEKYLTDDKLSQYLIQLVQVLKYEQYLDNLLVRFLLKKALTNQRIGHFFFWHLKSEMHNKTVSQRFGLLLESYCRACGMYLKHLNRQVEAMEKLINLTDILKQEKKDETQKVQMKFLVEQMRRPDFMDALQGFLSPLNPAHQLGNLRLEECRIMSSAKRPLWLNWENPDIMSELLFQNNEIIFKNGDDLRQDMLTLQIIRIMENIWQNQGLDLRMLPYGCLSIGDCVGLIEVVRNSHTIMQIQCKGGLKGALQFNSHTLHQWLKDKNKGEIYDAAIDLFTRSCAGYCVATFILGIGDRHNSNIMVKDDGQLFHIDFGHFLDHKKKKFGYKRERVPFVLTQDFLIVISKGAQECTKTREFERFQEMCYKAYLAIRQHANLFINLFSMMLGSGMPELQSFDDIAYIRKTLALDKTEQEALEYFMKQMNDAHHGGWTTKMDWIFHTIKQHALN
Chain of PI3K (P27986 whole entry partner): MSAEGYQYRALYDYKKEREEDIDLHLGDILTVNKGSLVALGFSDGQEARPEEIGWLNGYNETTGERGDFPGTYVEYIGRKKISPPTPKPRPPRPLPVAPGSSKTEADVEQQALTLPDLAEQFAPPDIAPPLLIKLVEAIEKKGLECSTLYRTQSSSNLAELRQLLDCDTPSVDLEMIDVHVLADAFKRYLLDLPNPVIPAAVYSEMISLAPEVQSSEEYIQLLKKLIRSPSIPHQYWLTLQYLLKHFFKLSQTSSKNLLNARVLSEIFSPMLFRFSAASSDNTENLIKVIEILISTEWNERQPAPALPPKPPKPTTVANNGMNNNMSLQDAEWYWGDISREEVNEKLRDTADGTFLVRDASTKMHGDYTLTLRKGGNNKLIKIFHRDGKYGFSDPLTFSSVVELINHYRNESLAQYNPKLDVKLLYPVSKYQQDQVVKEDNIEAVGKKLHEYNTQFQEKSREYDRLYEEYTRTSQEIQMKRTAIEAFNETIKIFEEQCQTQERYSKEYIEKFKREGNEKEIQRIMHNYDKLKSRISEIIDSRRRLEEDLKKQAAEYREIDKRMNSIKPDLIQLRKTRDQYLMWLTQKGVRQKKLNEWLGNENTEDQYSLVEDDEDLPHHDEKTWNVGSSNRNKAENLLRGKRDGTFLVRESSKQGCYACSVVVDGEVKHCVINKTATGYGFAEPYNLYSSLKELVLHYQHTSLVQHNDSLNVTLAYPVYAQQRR

SMILES	IC50 [1] [nM]	IC50 [2] [nM]	IC50 [3] [nM]
O=C(NO)Nc1ccc(-c2nc(N3CCOCC3)c3cnn(C4CCN(Cc5cccnc5)CC4)c3n2)cc1 [Compound 562, 1-hydroxy-3-(4-{4-morpholin-4-yl-1-[1-(pyridin-3-ylmethyl)piperidin-4-yl]-1H-pyrazolo[3,4-d]pyrimidin-6-yl}phenyl)urea]	259	1100	1500
CCNC(=O)Nc1ccc(-c2nc(N3CCOCC3)c3cnn(C4CCN(Cc5cccnc5)CC4)c3n2)cc1 [Compound 563, 1-ethyl-3-(4-{4-morpholin-4-yl-1-[1-(pyridin-3-ylmethyl)piperidin-4-yl]-1H-pyrazolo[3,4-d]pyrimidin-6-yl}phenyl)urea]	187	< 27	27
Nc1ccc(-c2nc(N3CCOCC3)c3cnn(C4CCC5(CC4)OCCO5)c3n2)cc1 [Compound 565, 4-[1-(1,4-dioxaspiro[4.5]dec-8-yl)-4-morpholin-4-yl-1H-pyrazolo[3,4-d]pyrimidin-6-yl]aniline]	2050	1100	7200
CNC(=O)Nc1ccc(-c2nc(N3CCOCC3)c3cnn(C4CCC5(CC4)OCCO5)c3n2)cc1 [Compound 566, 1-{4-[1-(1,4-dioxaspiro[4.5]dec-8-yl)-4-morpholin-4-yl-1H-pyrazolo[3,4-d]pyrimidin-6-yl]phenyl}-3-methylurea]	74	< 27	85
CNC(=O)Nc1ccc(-c2nc(N3CCOCC3)c3cnn(C4CCC(=O)CC4)c3n2)cc1 [Compound 567, 1-methyl-3-{4-[4-morpholin-4-yl-1-(4-oxocyclohexyl)-1H-pyrazolo[3,4-d]pyrimidin-6-yl]phenyl}urea]	56	27	180
CNC(=O)Nc1ccc(-c2nc(N3CCOCC3)c3cnn(C4CCC(O)CC4)c3n2)cc1 (stereo not drawn) [Compound 568, 1-{4-[1-(4-hydroxycyclohexyl)-4-morpholin-4-yl-1H-pyrazolo[3,4-d]pyrimidin-6-yl]phenyl}-3-methylurea]	39	54	240
CNC(=O)Nc1ccc(-c2nc(N3CCOCC3)c3cnn(C4CCN(C(=O)c5cccnc5C)CC4)c3n2)cc1 [Compound 573, 1-methyl-3-[4-(1-{1-[(2-methylpyridin-3-yl)carbonyl]piperidin-4-yl}-4-morpholin-4-yl-1H-pyrazolo[3,4-d]pyrimidin-6-yl)phenyl]urea]	216	250	900
CNC(=O)Nc1ccc(-c2nc(N3CCOCC3)c3cnn(C4CCN(Cc5ccc(OC)nc5)CC4)c3n2)cc1 [Compound 574, 1-[4-(1-{1-[(6-methoxypyridin-3-yl)methyl]piperidin-4-yl}-4-morpholin-4-yl-1H-pyrazolo[3,4-d]pyrimidin-6-yl)phenyl]-3-methylurea]	33	< 27	700
CNC(=O)Nc1ccc(-c2nc(N3CCOCC3)c3cnn(C4CCN(Cc5ccccn5)CC4)c3n2)cc1 [Compound 575, 1-methyl-3-(4-{4-morpholin-4-yl-1-[1-(pyridin-2-ylmethyl)piperidin-4-yl]-1H-pyrazolo[3,4-d]pyrimidin-6-yl}phenyl)urea]	64	< 27	500
CNC(=O)Nc1ccc(-c2nc(N3CCOCC3)c3cnn(C4CCN(CC(N)=O)CC4)c3n2)cc1 [Compound 576, 2-[4-(6-{4-[(methylcarbamoyl)amino]phenyl}-4-morpholin-4-yl-1H-pyrazolo[3,4-d]pyrimidin-1-yl)piperidin-1-yl]acetamide]	66	600	1000
CNC(=O)Nc1ccc(-c2nc(N3CCOCC3)c3cnn(C4CCN(CC(=O)c5ccccc5)CC4)c3n2)cc1 [Compound 577, 1-methyl-3-(4-{4-morpholin-4-yl-1-[1-(2-oxo-2-phenylethyl)piperidin-4-yl]-1H-pyrazolo[3,4-d]pyrimidin-6-yl}phenyl)urea]	22	< 27	180
